From patent US5948755A, “Cyclosporin compound, its preparation and the pharmaceutical compositions which contain it” (Rhone-Poulenc Rorer S.A., priority 1996, dated 1999)
pIC50: −log10 of the molar value.

Tests used:
[1] = at concentrations displaying anti-retrovirus activity
retrovirus (HIV) = settings: read-out: average for the active concentrations (IC50); technique of Pauwells et al.; first of the two values printed
[2] = EP 484281 and Eur. J. Immunol., 17, 1359 (1987); cited from earlier work

Molecule	cytotoxic or cytostatic effect [1]	pIC50 (retrovirus (HIV))	immunosuppressing nature [2]
C/C=C/C[C@@H](C)[C@@H](O)[C@H]1C(=O)N[C@@H](CC)C(=O)N(C)[C@H](SC)C(=O)N(C)[C@@H](CC(C)(C)O)C(=O)N[C@@H](C(C)C)C(=O)N(C)[C@@H](CC(C)C)C(=O)N[C@@H](C)C(=O)N[C@H](C)C(=O)N(C)[C@@H](CC(C)C)C(=O)N(C)[C@@H](CC(C)C)C(=O)N(C)[C@@H](C(C)C)C(=O)N1C [formula (I), [(R)-Methylthio-Sar]^3-[4'-hydroxy-MeLeu]^4-cyclosporin A]	devoid of any cytotoxic or cytostatic effect	7.15	
[4'-hydroxy-MeLeul]^4 -cyclosporin			are not immunosuppressants
